Test results published in ChEMBL document CHEMBL3045894, “GLUTATHIONE SYNTHESIS IN FILARIAL WORMS: AN ATTRACTIVE TARGET FOR THE DESIGN AND SYNTHESIS OF NEW ANTIFILARIALS” (Med Chem Res, 2004).
Activity calls are given as the source filed them. The rule behind the calls is not given here.

What follows are compounds tested against T1, Probable glutathione reductase 2 (Caenorhabditis elegans) (UniProt P30635) (assay: Inhibition of Setaria cervi glutathione reductase at 2 to 200 uM).
T1 sequence (whole entry): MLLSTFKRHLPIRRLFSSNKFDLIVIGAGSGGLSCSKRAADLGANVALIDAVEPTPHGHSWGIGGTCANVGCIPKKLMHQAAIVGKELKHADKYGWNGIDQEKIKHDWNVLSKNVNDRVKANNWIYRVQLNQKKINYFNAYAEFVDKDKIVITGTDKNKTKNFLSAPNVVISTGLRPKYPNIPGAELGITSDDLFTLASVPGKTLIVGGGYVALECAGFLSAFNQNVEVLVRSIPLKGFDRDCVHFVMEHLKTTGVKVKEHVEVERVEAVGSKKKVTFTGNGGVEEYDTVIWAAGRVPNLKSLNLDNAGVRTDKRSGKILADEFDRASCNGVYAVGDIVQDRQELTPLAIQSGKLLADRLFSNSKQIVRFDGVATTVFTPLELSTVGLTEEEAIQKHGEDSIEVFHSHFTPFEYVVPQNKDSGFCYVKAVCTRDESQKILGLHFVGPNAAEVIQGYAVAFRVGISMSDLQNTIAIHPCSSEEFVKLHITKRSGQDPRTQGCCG

| inhibition | Structure (SMILES) |
| --- | --- |
| 24% | CN(C)c1ccc2nc3ccc(=[N+](C)C)cc-3sc2c1 |

Each compound was assayed against T2, Glutamate--cysteine ligase (Onchocerca volvulus) (UniProt Q9NFN6) (assay: Inhibition of Setaria cervi glutamate cysteine ligase at 0.25 to 200 uM).
T2 sequence (whole entry): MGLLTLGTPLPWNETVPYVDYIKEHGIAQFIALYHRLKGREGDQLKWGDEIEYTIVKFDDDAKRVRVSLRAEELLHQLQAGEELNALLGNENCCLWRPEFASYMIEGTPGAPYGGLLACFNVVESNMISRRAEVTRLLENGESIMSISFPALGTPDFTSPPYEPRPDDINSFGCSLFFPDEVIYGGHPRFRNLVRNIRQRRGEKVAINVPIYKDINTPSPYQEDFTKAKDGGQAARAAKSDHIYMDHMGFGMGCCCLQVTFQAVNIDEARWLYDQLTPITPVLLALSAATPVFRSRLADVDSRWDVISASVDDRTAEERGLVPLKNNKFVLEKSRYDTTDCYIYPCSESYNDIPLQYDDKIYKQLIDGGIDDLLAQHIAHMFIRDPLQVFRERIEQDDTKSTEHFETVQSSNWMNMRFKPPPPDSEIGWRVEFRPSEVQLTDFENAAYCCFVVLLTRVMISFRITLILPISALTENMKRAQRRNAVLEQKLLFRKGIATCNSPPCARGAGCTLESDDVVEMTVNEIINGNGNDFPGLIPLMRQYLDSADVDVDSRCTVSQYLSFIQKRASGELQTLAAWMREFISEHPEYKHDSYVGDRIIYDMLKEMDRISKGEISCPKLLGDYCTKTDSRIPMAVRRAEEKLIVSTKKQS

| inhibition | Structure (SMILES) |
| --- | --- |
| 19% | NCCSSCCN |

Each compound was assayed against T3, Glutamate--cysteine ligase catalytic subunit (Mus musculus) (UniProt P97494) (assay: Inhibition of Mus musculus (mouse) glutamate cysteine ligase isolated from liver at 200 uM).
T3 sequence (whole entry): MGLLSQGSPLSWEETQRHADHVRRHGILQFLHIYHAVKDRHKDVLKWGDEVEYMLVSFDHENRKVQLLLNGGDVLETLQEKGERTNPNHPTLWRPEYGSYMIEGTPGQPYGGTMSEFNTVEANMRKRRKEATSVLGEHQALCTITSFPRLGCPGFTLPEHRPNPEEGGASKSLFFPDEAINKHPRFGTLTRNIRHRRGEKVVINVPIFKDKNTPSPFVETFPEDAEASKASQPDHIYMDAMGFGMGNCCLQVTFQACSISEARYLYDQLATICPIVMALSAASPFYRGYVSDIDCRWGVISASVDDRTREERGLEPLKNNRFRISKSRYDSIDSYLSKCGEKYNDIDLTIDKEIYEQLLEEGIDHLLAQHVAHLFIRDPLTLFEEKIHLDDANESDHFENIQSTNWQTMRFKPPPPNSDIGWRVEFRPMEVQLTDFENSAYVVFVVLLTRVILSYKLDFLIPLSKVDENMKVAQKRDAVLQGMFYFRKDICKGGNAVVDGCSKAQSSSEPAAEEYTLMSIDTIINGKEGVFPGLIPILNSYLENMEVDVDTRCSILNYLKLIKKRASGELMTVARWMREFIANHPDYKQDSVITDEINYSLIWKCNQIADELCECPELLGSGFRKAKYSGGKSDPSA

| inhibition | Structure (SMILES) |
| --- | --- |
| 18% | CO[C@@H]1[C@H]2OC(C)(C)O[C@H]2O[C@@H]1[C@H](CC(N)=O)N(Cc1ccccc1)C(=O)Nc1cccc(C(C)=O)c1 |
| inactive | CO[C@@H]1[C@H]2OC(C)(C)O[C@H]2O[C@@H]1[C@@H]1CC(=O)N(Cc2ccccc2)C(=O)N1Cc1ccccc1 |

What follows are compounds tested against T4, Glutathione reductase, mitochondrial (Mus musculus) (UniProt P47791) (assay: Inhibition of Mus musculus (mouse) glutathione reductase isolated from liver at 200 uM).
T4 sequence (whole entry): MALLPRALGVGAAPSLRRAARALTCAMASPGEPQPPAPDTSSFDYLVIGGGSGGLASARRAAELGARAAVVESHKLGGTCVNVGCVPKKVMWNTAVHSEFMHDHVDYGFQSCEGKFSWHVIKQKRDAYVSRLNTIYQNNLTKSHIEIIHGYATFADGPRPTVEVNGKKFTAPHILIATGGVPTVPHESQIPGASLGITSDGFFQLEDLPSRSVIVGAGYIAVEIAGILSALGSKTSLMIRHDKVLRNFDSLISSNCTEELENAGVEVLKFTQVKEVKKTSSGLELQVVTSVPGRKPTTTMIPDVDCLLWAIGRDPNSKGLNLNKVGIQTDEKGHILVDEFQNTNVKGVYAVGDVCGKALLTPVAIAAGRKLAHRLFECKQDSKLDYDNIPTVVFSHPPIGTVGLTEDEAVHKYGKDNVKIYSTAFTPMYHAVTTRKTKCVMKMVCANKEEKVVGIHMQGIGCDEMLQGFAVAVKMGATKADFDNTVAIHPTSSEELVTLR

| Structure (SMILES) | inhibition |
| --- | --- |
| COc1ccc(CN2C(=O)N(c3ccc(C(C)=O)cc3)C(=O)C[C@H]2[C@H]2O[C@@H]3OC(C)(C)O[C@@H]3[C@H]2OCc2ccccc2)cc1 | inactive |
| CCCCCCCCCCCCNC(CC(=O)NO)[C@H]1O[C@@H]2OC(C)(C)O[C@@H]2[C@H]1OCc1ccccc1 (stereo partly drawn) | inactive |
| CCOC(=O)CC([C@H]1O[C@@H]2OC(C)(C)O[C@@H]2[C@H]1OC)N1CCC[C@H]1C(=O)OCC1c2ccccc2-c2ccccc21 (stereo partly drawn) | inactive |
| CCOC(=O)CC(Nc1ccco1)[C@H]1O[C@@H]2OC(C)(C)O[C@@H]2[C@H]1OCc1ccccc1 (stereo partly drawn) | inactive |
| CC1(C)O[C@H]2O[C@H](C(CC(=O)NO)N3CCCCC3)[C@H](OCc3ccccc3)[C@H]2O1 (stereo partly drawn) | inactive |
| CC(=O)c1cccc(N2C(=O)[C@H](CC(C)C)N(C[C@H]3O[C@@H]4OC(C)(C)O[C@@H]4[C@H]3OCc3ccccc3)C2=O)c1 | inactive |
| CCOC(=O)C[C@@H](Nc1ccccc1O)[C@H]1O[C@@H]2OC(C)(C)O[C@@H]2[C@H]1OC | inactive |
| CCOC(=O)CC(Nc1ccco1)[C@H]1O[C@@H]2OC(C)(C)O[C@@H]2[C@H]1OC (stereo partly drawn) | inactive |
| CC1(C)O[C@H]2O[C@H]([C@@H]3CC(=O)N(Cc4ccccc4)C(=O)N3Cc3ccccc3)[C@H](OCc3ccccc3)[C@H]2O1 | inactive |
| CC1(C)O[C@H]2O[C@H](C(CC(=O)NO)NCc3ccccc3)[C@H](OCc3ccccc3)[C@H]2O1 (stereo partly drawn) | inactive |

The remaining lines, values ahead:

| inhibition | Structure (SMILES) |
| --- | --- |
| inactive | CCOC(=O)CC([C@H]1O[C@@H]2OC(C)(C)O[C@@H]2[C@H]1OC)N(CCC(C)CC(C)C)C(=O)NCc1ccccc1 (stereo partly drawn) |
| inactive | CCCCCCCN[C@@H](CC(=O)OCC)[C@@H]1O[C@@H]2OC(C)(C)O[C@@H]2[C@H]1OC |
| inactive | CCCCCCCNC(CC(=O)NO)[C@H]1O[C@@H]2OC(C)(C)O[C@@H]2[C@H]1OCc1ccccc1 (stereo partly drawn) |
| inactive | CCCc1nccn1C(CC(=O)OCC)[C@H]1O[C@@H]2OC(C)(C)O[C@@H]2[C@H]1OC (stereo partly drawn) |
| inactive | CO[C@@H]1[C@H]2OC(C)(C)O[C@H]2O[C@H]1C(CC(=O)O)NCCC(C)CC(C)C (stereo partly drawn) |
| 71% | CCCCCCCCCCCCCCCCNC(CC(=O)NO)[C@H]1O[C@@H]2OC(C)(C)O[C@@H]2[C@H]1OC (stereo partly drawn) |
| inactive | CCCCCCCNC(CC(=O)O)[C@@H]1O[C@@H]2OC(C)(C)O[C@@H]2[C@H]1OC (stereo partly drawn) |
| inactive | CCOC(=O)C[C@H](C[C@H]1O[C@@H]2OC(C)(C)O[C@@H]2[C@H]1OC)NCc1ccccc1O |
| inactive | CO[C@@H]1[C@H]2OC(C)(C)O[C@H]2O[C@@H]1C1CC(=O)N(Cc2ccccc2)C(=O)N1CCC(C)CC(C)C (stereo partly drawn) |
